“Also recorded” adds a separate entry of the source.
Columns and labels:
SERCA2 = molecular target: T1, SERCA2 (Homo sapiens, UniProt P16615); assay: NADH-coupled ATPase assay on microsomal membrane vesicles from HEK-293T cells (HEK-293 ER); format: biochemical; settings: for SERCA2a HEK ER effect class: 10 μM (1 μM for 12b per Figure S7), microsomal membrane vesicles; for SERCA2 ATPase activity in HEK-293 ER microsomes (in words): 10 μM, vs 0.1 v/v% DMSO
T1 construct: endogenous in cells; host or cells: HEK-293T cells, microsomal membrane vesicles (HEK-293 ER)
T1 sequence (P16615 whole entry): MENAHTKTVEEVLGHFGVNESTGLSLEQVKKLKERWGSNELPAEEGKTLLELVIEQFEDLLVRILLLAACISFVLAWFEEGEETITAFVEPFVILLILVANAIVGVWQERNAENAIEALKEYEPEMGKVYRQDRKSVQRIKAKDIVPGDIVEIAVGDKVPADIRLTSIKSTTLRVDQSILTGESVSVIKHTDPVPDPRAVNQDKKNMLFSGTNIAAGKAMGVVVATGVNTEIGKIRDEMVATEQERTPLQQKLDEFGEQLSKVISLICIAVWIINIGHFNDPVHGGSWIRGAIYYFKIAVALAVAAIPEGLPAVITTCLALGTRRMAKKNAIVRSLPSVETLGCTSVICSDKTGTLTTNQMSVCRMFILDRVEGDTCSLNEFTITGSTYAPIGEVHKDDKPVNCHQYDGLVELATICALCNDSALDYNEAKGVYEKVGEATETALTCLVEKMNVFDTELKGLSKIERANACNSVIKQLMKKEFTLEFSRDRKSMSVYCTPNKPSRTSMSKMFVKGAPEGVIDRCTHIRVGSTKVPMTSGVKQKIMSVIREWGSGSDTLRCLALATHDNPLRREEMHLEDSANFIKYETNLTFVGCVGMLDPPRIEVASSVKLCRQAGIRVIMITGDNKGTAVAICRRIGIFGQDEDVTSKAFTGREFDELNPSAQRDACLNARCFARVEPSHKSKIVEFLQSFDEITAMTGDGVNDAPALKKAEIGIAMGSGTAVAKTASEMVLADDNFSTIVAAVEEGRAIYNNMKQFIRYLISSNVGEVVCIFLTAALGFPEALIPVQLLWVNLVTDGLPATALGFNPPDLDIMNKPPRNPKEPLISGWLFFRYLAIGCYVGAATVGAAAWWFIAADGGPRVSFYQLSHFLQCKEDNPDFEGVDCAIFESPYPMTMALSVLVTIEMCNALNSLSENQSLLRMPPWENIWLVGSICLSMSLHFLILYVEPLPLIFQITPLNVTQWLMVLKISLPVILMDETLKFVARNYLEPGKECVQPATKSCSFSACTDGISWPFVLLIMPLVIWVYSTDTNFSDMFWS
Text: Cyclopropanol derivatives have a variety of biological activities including enzyme inhibition and antibacterial and anticancer properties.[47]−[50] However, there have been no published reports on cyclopropanol-containing molecules specifically acting as modulators of RyRs and/or activators of SERCA. To investigate more directly whether the compounds influence the SERCA2 activity, we performed nicotinamide adenine dinucleotide (NADH) fluorescence-coupled ATPase assay according to Radnai et al.[51] In this assay, the change in NADH coenzyme fluorescence reflects the level of the consumption of ATP, which we took as indicator of SERCA2 activity.[51],[52] ATP hydrolysis by SERCA2 is required to pump calcium ions into the SR. We assume that a higher rate of ATP hydrolysis reflects an increase in SERCA2 ATPase activity that leads to a greater pumping of calcium ions into the SR.
We observed the rate of NADH oxidation, which is coupled to ATP hydrolysis, by measuring changes in NADH intrinsic fluorescence over time after ATP injection into microsomal membranes enriched in SR vesicles isolated from mouse heart ventricles (mouse SR) and HEK-293T cells (HEK-293 ER). The presence of SERCA2 in mouse SR and HEK-293 ER of isolated microsomal vesicles was confirmed by Western blotting (Figures S5 and S6; for details see Experimental Section). The NADH fluorescence decrease was recorded on a multiwell plate reader TECAN Spark 20M (λex = 380 nm, λem = 470 nm). […] Consistent with our previous experiment on HL-1 cells, we observed a strong decrease in NADH fluorescence reflecting an increase in SERCA2a activity in SR microsomes derived from mouse heart ventricles (n = 3–5) in solutions containing the tested compounds compared to the 0.1 v/v% DMSO sample (Figure 6). […] Similar results were obtained in cardiac SR vesicles from the mouse heart. […] This difference may indicate isoform-specific effects of our compound in HEK-293 cells expressing mostly SERCA2b[53] versus mouse SR vesicles containing mostly SERCA2a.[54] In both experiments, we used CDN1163 as a positive control.
Isolation of microsomal membrane vesicles from HEK-293T cells (HEK-293 ER) was performed according to Stewart et al.[61] HEK-293T cells were harvested with Trypsin/EDTA, washed twice with ice-cold PBS containing protease inhibitor cocktail (cOmplete, Roche, Mannheim, Germany), and centrifuged 800 × g for 5 min. The pellet was resuspended in ice-cold lysis buffer (1 mM EDTA, 10 mM HEPES, cOmplete, pH 7.4) and incubated on ice for 20 min. After the cells were homogenized with a tight-fitting Dounce homogenizer (10–20 strokes), an equal volume of restoration buffer (500 mM sucrose, 10 mM HEPES, cOmplete, pH 7.2) was added and the cells were homogenized again (10–20 strokes). The homogenate was centrifuged at 10,000 × g for 20 min at 4 °C. The supernatant was collected and centrifuged again for another 2 h (10^5 × g at 4 °C). Then, the pellet was carefully resuspended in resuspension buffer (250 mM sucrose, 10 mM HEPES, cOmplete, pH 7.2) on ice by pipetting the solution up and down until it was fully dissolved. The obtained solution was diluted to a protein concentration of 15–20 μg/μL with the resuspension buffer; the aliquots were snap frozen in liquid nitrogen and stored at −80 °C until usage.
To determine whether new compounds could increase the SERCA2 activity, HEK-293 microsomes (40–150 μg of total protein) or mouse ventricular microsomes (1–20 μg of total protein) were diluted in 100 μL of the assay buffer used for measurement of SERCA activity (described below) and incubated at room temperature for 5 min prior to the experiments. The measurements of SERCA2 activity were made at 28 °C by using a NADH-coupled ATPase assay as described in Radnai et al. with slight modifications.[51] Briefly, the assay buffer contained 60 mM MOPS, 120 mM KCl, 6 mM MgCl2, 1 mM EGTA, 5 mM NaN3, 0.5 mM phosphoenolpyruvate, and 1.5 mM CaCl2, pH 7.0. […]

[1] = Membrane permeability, PermeaPad Plate (cell-free transport model); format: in vitro ADME; settings: for Pe: 24 h, room temperature; for Pe class (low/medium/high; poor): class word printed beside Pe, no key given
Description: Membrane permeability was assessed using PermeaPad Plate according to the manufacturing procedure (innoME GmbH, Espelkamp, Germany). Briefly, 200 μL of water was added into the acceptor plate. 200 μL of 100–500 μM test compound in water was added directly to the well membranes of the donor plate. The donor plate contains a biomimetic membrane for simulating passive mass transfer through different barriers in the body. Then, the donor plate was placed into the acceptor plate wells and incubated at room temperature for 24 h in the dark. To determine the peak absorbance of test compounds, absorbance spectra of acceptor solutions and initial solutions for each test compound were read out. The permeability rate (Pe) was calculated using the formula:
[drawing 1] , where ODA is the absorbance of acceptor solution and ODE is the absorbance of the standard solution; if the compound is able to permeabilize the membrane and fully reach equilibrium, 250 μM will be the final concentration of solution in the donor and acceptor wells. The coefficient C was calculated using the formula:
[drawing 2] , where VA is the acceptor volume (cm^3), VD is the donor volume (cm^3), the membrane area is 0.24 cm^2, and the time is 86,400 s.

Row | SMILES | SERCA2a HEK ER effect class (SERCA2) | Pe [1] | Pe class (low/medium/high; poor) [1] | EC50 (SERCA2; ATPase activity, value, interval, read-out: SERCA2a HEK ER (EC50)) [nM] | SERCA2 ATPase activity in HEK-293 ER microsomes (in words) (SERCA2)
1 | COc1ccc(SCCCNCCCCC2(O)CC2)cc1 [11c, 1-(4-((3-((4-Methoxyphenyl)thio)propyl)amino)butyl)cyclopropan-1-ol] | + | 6.9 10^–6 cm/s | high |  | significant activation of SERCA2 ATPase
2 | COc1ccc(OCCCNCCCCC2(O)CC2)cc1 [11b, 1-(4-((3-(4-Methoxyphenoxy)propyl)amino)butyl)cyclopropan-1-ol] |  | 4.0 10^–6 cm/s | high |  | did not evoke a significant increase in ATPase activity
3 | COc1ccc2c(c1)CN(CCCCC1(O)CC1)CCS2 [11d, 1-(4-(7-Methoxy-2,3-dihydrobenzo[1,4-f]thiazepin-4(5H)-yl)butyl)cyclopropan-1-ol] | + | 3.6 10^–6 cm/s | high |  | significant activation of SERCA2 ATPase; also recorded: slight
4 | COc1ccc2c(c1)CN(CCCCNCCCCC1(O)CC1)CCS2 [11a, 1-(4-((4-(7-Methoxy-2,3-dihydrobenzo[1,4-f]thiazepin-4(5H)-yl)butyl)amino)butyl)cyclopropan-1-ol] |  | 0.8 10^–6 cm/s | poor permeability and low |  | did not evoke a significant increase in ATPase activity; also recorded: could not detect SERCA2 activation

Continued, in another order:

Row | SERCA2a HEK ER effect class (SERCA2) | Pe [1] | Pe class (low/medium/high; poor) [1] | EC50 (SERCA2; ATPase activity, value, interval, read-out: SERCA2a HEK ER (EC50)) [nM] | SMILES | SERCA2 ATPase activity in HEK-293 ER microsomes (in words) (SERCA2)
5 | + | 3.6 10^–6 cm/s | high |  | COc1ccc(SCCCN(CCCCC2(O)CC2)CCCCC2(O)CC2)cc1 [12c, 1,1′-(((3-((4-Methoxyphenyl)thio)propyl)azanediyl)bis(butane-4,1-diyl))bis(cyclopropan-1-ol)] | 
6 | + | 6.8 10^–6 cm/s | high |  | COc1ccc2c(c1)CN(Cc1ccc(C(=O)O)cc1)CCS2 [ARM210, reference compound] | significant activation of SERCA2 ATPase
7 | ++ | 0.6 10^–6 cm/s | poor permeability and low | 16 | COc1ccc2c(c1)CN(CCCCN(CCCCC1(O)CC1)CCCCC1(O)CC1)CCS2 [12a, 1,1′-(((4-(7-Methoxy-2,3-dihydrobenzo[1,4-f]thiazepin-4(5H)-yl)butyl)azanediyl)bis(butane-4,1-diyl))bis(cyclopropan-1-ol)] | 

Reference: PMC10726367 (Journal of Medicinal Chemistry, 2023)
